Experiments:
[1] = target: Hsp90 (Homo sapiens, UniProt P07900); settings: cited from earlier work
[2] = tested on: Reverse transcriptase; settings: cited from earlier work
[3] = tested on: LXF 1121L; experiment: monolayer proliferation assay, modified propidium iodide assay; type: cell-based, human; settings: LXF 1121L (lung, large cell ca), 4 days continuous exposure
Method: (§1) In vitro evaluation of compounds for anticancer activity in a panel of human tumour cell lines in a monolayer proliferation assay was carried out at the Oncotest Testing Facility, Institute for Experimental Oncology, Oncotest GmbH, Freiburg.
(§2) The Oncotest cell lines are established from human tumor xenografts as described by Roth et al., (1999). The origin of the donor xenografts was described by Fiebig et al., (1999). Other cell lines are either obtained from the NCI (DU145, MCF-7) or purchased from DSMZ, Braunschweig, Germany.
(§3) All cell lines, unless otherwise specified, were grown at 37° C. in a humidified atmosphere (95% air, 5% CO2) in a ‘ready-mix’ medium containing RPMI 1640 medium, 10% fetal calf serum, and 0.1 mg/mL gentamicin (PAA, Cölbe, Germany).
(§4) A modified propidium iodide assay was used to assess the effects of the test compound(s) on the growth of human tumour cell lines (Dengler et al., (1995)).
(§5) Briefly, cells were harvested from exponential phase cultures by trypsinization, counted and plated in 96 well flat-bottomed microtitre plates at a cell density dependent on the cell line (5-10.000 viable cells/well). After 24 h recovery to allow the cells to resume exponential growth, 0.010 mL of culture medium (6 control wells per plate) or culture medium containing the 11-O-desmethylmacbecin analogue were added to the wells. Each concentration was plated in triplicate. Compounds were applied in two concentrations (1 μg/mL and 10 μg/mL). Following 4 days of continuous exposure, cell culture medium with or without test compound was replaced by 0.2 mL of an aqueous propidium iodide (PI) solution (7 mg/L). To measure the proportion of living cells, cells were permeabilized by freezing the plates. After thawing the plates, fluorescence was measured using the Cytofluor 4000 microplate reader (excitation 530 nm, emission 620 nm), giving a direct relationship to the total number of viable cells. Growth inhibition was expressed as treated/control×100 (% T/C).
(§6) In vitro evaluation of the test compounds for anticancer activity in a panel of human tumour cell lines in a monolayer proliferation assay was carried out as described in the general methods using a modified propidium iodide assay.

[4] = tested on: MCF-7; experiment: as above; type: cell-based, human; settings: MCF-7 (breast), 4 days continuous exposure
Method: as §1, §2, §3, §4, §5, §6

[5] = tested on: MEXF 394NL; experiment: as above; type: cell-based, human; settings: MEXF 394NL (melanoma), 4 days continuous exposure
Method: as §1, §2, §3, §4, §5, §6

[6] = tested on: CXF HT29; experiment: as above; type: cell-based, human; settings: CXF HT29 (colon), 4 days continuous exposure
Method: as §1, §2, §3, §4, §5, §6

[7] = tested on: CNXF 498NL; experiment: as above; type: cell-based, human; settings: CNXF 498NL (CNS), 4 days continuous exposure
Method: as §1, §2, §3, §4, §5, §6

[8] = tested on: DU145; experiment: as above; type: cell-based, human; settings: DU145 (prostate, PTEN positive), 4 days continuous exposure
Method: as §1, §2, §3, §4, §5, §6

[9] = target: terminal deoxynucleotidyl transferase (Homo sapiens, UniProt P04053); settings: cited from earlier work
terminal deoxynucleotidyl transferase, sequence (P04053 whole entry, species assumed): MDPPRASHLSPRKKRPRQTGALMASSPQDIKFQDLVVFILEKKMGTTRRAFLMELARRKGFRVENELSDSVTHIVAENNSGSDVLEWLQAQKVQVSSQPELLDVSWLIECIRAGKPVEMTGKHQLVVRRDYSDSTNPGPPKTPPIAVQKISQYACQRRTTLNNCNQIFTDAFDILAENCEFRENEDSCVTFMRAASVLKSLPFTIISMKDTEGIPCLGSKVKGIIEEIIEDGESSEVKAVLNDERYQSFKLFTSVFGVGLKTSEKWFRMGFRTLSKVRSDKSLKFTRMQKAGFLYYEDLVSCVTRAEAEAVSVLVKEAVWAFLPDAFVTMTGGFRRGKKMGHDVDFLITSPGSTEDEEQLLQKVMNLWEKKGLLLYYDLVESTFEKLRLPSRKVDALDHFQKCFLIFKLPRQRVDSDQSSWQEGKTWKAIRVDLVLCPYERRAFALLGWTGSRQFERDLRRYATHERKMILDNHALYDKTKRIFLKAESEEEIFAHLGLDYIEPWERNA

Compound | binding affinity to Hsp90, greater than 17-AAG ([1]; relative to 17-AAG) [fold] | binding affinity to Hsp90, greater than geldanamycin ([1]; relative to geldanamycin) [fold] | inhibition of reverse transcriptase activity [2] | Test/Control (%) at drug concentration ([3]; 1 μg/mL) [%] | Test/Control (%) at drug concentration ([3]; 10 μg/mL) [%] | Test/Control (%) at drug concentration ([4]; 1 μg/mL) [%] | Test/Control (%) at drug concentration ([4]; 10 μg/mL) [%] | Test/Control (%) at drug concentration ([5]; 1 μg/mL) [%] | Test/Control (%) at drug concentration ([5]; 10 μg/mL) [%] | Test/Control (%) at drug concentration ([6]; 1 μg/mL) [%] | Test/Control (%) at drug concentration ([6]; 10 μg/mL) [%] | Test/Control (%) at drug concentration ([7]; 1 μg/mL) [%] | Test/Control (%) at drug concentration ([7]; 10 μg/mL) [%] | Test/Control (%) at drug concentration ([8]; 1 μg/mL) [%] | Test/Control (%) at drug concentration ([8]; 10 μg/mL) [%] | inhibition of terminal deoxynucleotidyl transferase activity [9]
CO[C@H]1C[C@H](C)Cc2cc(O)cc(c2)NC(=O)/C=C/CC[C@H](OC)[C@@H](OC(N)=O)/C(C)=C/[C@H](C)[C@H]1O [KOSN1559] | 8 | 4 | – | – | – | – | – | – | – | – | – | – | – | – | – | –
CO[C@H]1[C@@H](OC)C[C@H](C)[C@@H](OC)C2=CC(=O)C=C(NC(=O)/C(C)=C/C=C\[C@H](C)[C@@H](OC(N)=O)/C(C)=C/[C@@H]1C)C2=O [Macbecin, macbecin, reference compound] | – | – | not inhibited | 30 | 17 | 42 | 19 | 16 | 13 | 22 | 8 | 29 | 14 | 13 | 5 | not inhibited
CO[C@H]1C[C@H](C)[C@@H](O)C2=CC(=O)C=C(NC(=O)/C(C)=C/C=C\[C@H](C)[C@@H](OC(N)=O)/C(C)=C/[C@H](C)[C@H]1O)C2=O [compound 14, 11-O-desmethyl-15-O-desmethylmacbecin] | – | – | – | 83.3 | 57.7 | 83.7 | 58.7 | 50.7 | 77 | 88.7 | 55 | 82.7 | 45.3 | 78.7 | 35 | –
CO[C@H]1C[C@H](C)CC2=CC(=O)C=C(NC(=O)/C(C)=C/C=C\[C@H](C)[C@@H](OC(N)=O)/C(C)=C/[C@H](C)[C@H]1O)C2=O [compound 15, 11-O-desmethyl-15-desmethoxymacbecin] | – | – | – | 57.7 | 11.7 | 49.3 | 13.7 | 22 | 5 | 37.7 | 9 | 30 | 9 | 16.3 | 6 | –
CO[C@H]1C[C@H](C)CC2=CC(=O)C=C(NC(=O)/C(C)=C/CC[C@H](C)[C@@H](OC(N)=O)/C(C)=C/[C@H](C)[C@H]1O)C2=O [compound 17, 4,5-dihydro-11-O-desmethyl-15-desmethoxymacbecin] | – | – | – | 55 | 17 | 35 | 5 | 38 | 4 | 52 | 6 | 35 | 8 | 18 | 5 | –
